Experimental data: US20190276793A1, “Methods and Apparatus for Regulation of Gene Expression Across a Large-Scale Solid Structure” (Massachusetts Institute of Technology, priority 2018, published 2019)

System: E. coli strain IPTG/GFP
Experiment: GFP induction by cured chemical signaling resin in the IPTG/GFP reporter strain
Assay type: cell-based
Conditions: IPTG 2.0 M, after UV-curing
Excerpt: In some use cases, this prototype facilitates fluorometric assays of gene expression as follows: Strains with fluorescent protein outputs are constructed. The strains IPTG/GFP, AHL/GFP, and RHA/GFP each express a green fluorescent protein (GFP) under the control of promoters LacI, LuxR, and RhaBAD when induced by the chemicals IPTG, N-acyl homoserine lactone (AHL), Rhamnose (RHA), respectively. For orthogonal AHL and IPTG patterning, the strain AHL/RFP is also cloned to produce a differentiable red fluorescent protein (RFP) under AHL-inducible control. Also, gene constructs using combinatorial promoters (where IPTG.AHL/GFP equated to NAND logic function and IPTG.AHL/GFP equated to AND logic function) were cloned for HLM objects performing spatial patterning from two-input cell logic. These transcriptional regulators may be utilized for multi-signal pattern generation.
In a test of this prototype, different photopolymer resins (with embedded chemical signaling molecules) were created by mixing incremental concentrations and ratios of DMSO-solubilized inducer, IPTG, and uncured resin in low light. To rapidly manufacture test pieces, a VeroClear™ RGD810 tray was printed with 3×3 circular wells (10 mm diameter, 3 mm depth). […]

Structure (SMILES): CC(C)S[C@@H]1O[C@H](CO)[C@H](O)[C@H](O)[C@H]1O [IPTG, Isopropyl β-D-1-thiogalactopyranoside]
- induction in E. coli strain IPTG/GFP: robust induction
